Data taken from US20170107577A1, “Determining Cancer Aggressiveness, Prognosis and Responsiveness to Treatment” (THE COUNCIL OF THE QUEENSLAND INSTITUTE OF MEDICAL RESEARCH, priority 2014, published 2017).
Entries after “also recorded” stand apart in the source; their conditions may differ. Where two headings read alike, the source gives them in different places.

Tests used:
Format in all cases: cell-based
breast cancer cell lines = assay: Aurora kinase inhibitor sensitivity of breast cancer cell lines by Agro, TN and iBCR score (two published studies)
Protocol: Two studies which treated breast cancer cell lines with Aurora kinase inhibitors were analyzed based on the Agro, TN and the iBCR score for these cell lines.

[1] = test system: breast cancer cell lines (TNBC and non-TNBC); assay: Cell survival (CellTiter 96 MTS/MTA assay) of breast cancer cell lines after drug treatment; conditions: 6 days; for survival of cells, combination of TTKi with docetaxel: very low (sub-lethal) doses, TNBC cell lines which overexpress TTK vs cell lines which do not
Protocol: FIG. 5: Therapeutic targets in the aggressiveness gene list. (A) The TNBC cell lines, MDA-MB-231, SUM159PT and Hs578T were treated with control siRNA (Scrambled, Sc CTRL) or siRNA targeting the specified genes and the survival of these cells was compared on day 6. Data shown is the average from the three cell lines where each cell line was treated in triplicate. * p<0.05, ** p<0.01 and *** <0.001 from One-Way ANOVA analysis performed using GraphPad® Prism. (B) A panel of breast cancer cell lines was used to prepare lysates for immunoblotting of TTK. Tubulin was used as the loading control. (C) Dose response curves for the treatment of breast cancer cell lines in the absence or presence of escalating doses of the TTK inhibitor (TTKi) AZ3146. The survival of cells was measured using the CellTitre® MTS/MTA assay carried out 6 days after treatment. Percentage survival (n=3 per dose) was calculated as the percentage of the signal from treated cells to that from control cells. […]
FIG. 7: TTK associates with aggressive subtypes and is a therapeutic target. […] The survival of cells was measured using the MTS/MTA assay as described in Methods. *** p<0.001 comparing the combination to single agents and to non-TNBC cell lines from Two-Way Anova in GraphPad® Prism. […]
Breast cancer cell lines were obtained from ATCC™ (VA, USA) and cultured as per ATCC™ instructions. […] Six days after siRNA knockdown or after drug treatments the survival of cells in comparison to control was determined using the CellTiter 96® Assay as per manufacturer instructions (Promega Corporation, WI, USA). For immunoblotting, standard protocols were used and membranes were probed with antibodies against TTK (anti-MPS1 mouse monoclonal antibody [N1] ab11108 (Abcam, Cambridge), and γ-tubulin (Sigma-Aldrich®) then developed using chemiluminescence reagent plus (Milipore, MA, USA). Flow cytometry to quantify apoptosis was performed using Annexin V-Alexa488 and 7-AAD (Life Technologies) as per manufacturer instruction using BD FACSCanto II™ flow cytometer (BD Biosciences, CA, USA).

MDA-MB-231 cells = assay: Apoptosis assay by flow cytometry (Annexin V / 7-AAD); conditions: MDA-MB-231, collected at 96 hours
Excerpt: FIG. 7: TTK associates with aggressive subtypes and is a therapeutic target. (A) Kaplan-Meier survival curves are shown for Grade 3 tumors, lymph node positive patients (LN^+) and LN^+ patients with grade 3 tumors. Log-rank Test and p-value were used for these survival curves. For patients with TNBC, and HER2, survival was statistically significant using the Gehan-Breslow-Wilcoxon test (p-values marked by asterisks) which gives more weight to deaths at early time points. […] Survival curves and statistical analyses were performed using GraphPad® Prism. (B) TNBC and non-TNBC cell lines were treated for 6 days with the specified concentrations of docetaxel (doc) alone, TTK inhibitor (TTKi) alone of the combinations. The survival of cells was measured using the MTS/MTA assay as described in Methods. *** p<0.001 comparing the combination to single agents and to non-TNBC cell lines from Two-Way Anova in GraphPad® Prism. (C) MDA-MB-231 cells were treated with docetaxel or TTKi alone or in combination and collected at 96 hours to perform apoptosis assays by flow cytometry. […]
Breast cancer cell lines were obtained from ATCC™ (VA, USA) and cultured as per ATCC™ instructions. […] Six days after siRNA knockdown or after drug treatments the survival of cells in comparison to control was determined using the CellTiter 96® Assay as per manufacturer instructions (Promega Corporation, WI, USA). […]

[2] = high iBCR score breast cancer cell lines, read-out: IC50, high iBCR score cell lines
[3] = low iBCR score breast cancer cell lines, read-out: IC50, low iBCR score cell lines

Row | IC50 (breast cancer cell lines; [2]) [nM] | IC50 (breast cancer cell lines; [3]) [nM] | Molecule | survival of cells, combination of TTKi with docetaxel [1] | apoptotic cell death, combination of TTKi with docetaxel (MDA-MB-231 cells) | sensitivity (survival of cells) to the TTK inhibitor ([1]; panel of breast cancer cell lines, TNBC cell lines vs other cell lines)
1 | 0.3 | 0.7 | Cc1csc(-c2nnc(Nc3ccc(Oc4ncccc4-c4ccnc(N)n4)cc3)c3ccccc23)c1 [AMG 900] | – | – | –
2 | 1400 | 5900 | Cc1cc(Nc2cc(N3CCN(C)CC3)nc(/C=C/c3ccccc3)n2)n[nH]1 [ENMD-2076] | – | – | –
3 | – | – | CC(=O)O[C@@]12CO[C@@H]1C[C@H](O)[C@@]1(C)C(=O)[C@H](O)C3=C(C)[C@@H](OC(=O)[C@H](O)[C@@H](NC(=O)OC(C)(C)C)c4ccccc4)C[C@@](O)([C@@H](OC(=O)c4ccccc4)[C@H]21)C3(C)C [docetaxel] | synergized | induced apoptotic cell death | –
4 | – | – | AZ3146 | synergized with docetaxel | induced apoptotic cell death | effective against TNBC cell lines; also recorded: TNBC cell lines were more sensitive
